From patent publication US10662183B2, “Inhibitors of myocardin-related transcription factor and serum response factor (MRTF/SRF)-mediated gene transcription and methods for use of the same” (THE REGENTS OF THE UNIVERSITY OF MICHIGAN, priority 2014, dated 2020) come the findings set out here.

The first test relates to SRE.L-firefly luciferase reporter (Rho/MKL1 pathway) in PC-3 prostate cancer cells. Kind of test: SRE.L-luciferase reporter assay. Type of test: cell-based. The settings on record: 19 h, PC-3 cells transfected with Gα12Q231L, SRE.L and pRL-TK reporters; compound 19 hrs. On the procedure: Seed PC-3 prostate cancer cells (40,000 cells/well) were grown in 96-well plates in 10% FBS containing DMEM medium. Cells were transiently transfected with the Ga12QL activator of the Rho/MKL1 pathway, along with the SRE.L-firefly luciferase reporter construct for 6 hours. Additionally, cells were co-transfected with the TK-Renilla luciferase reporter as an indicator of non-specific compound effects. Various concentrations of the compounds disclosed herein were added to the 96-well plates. Plates were incubated for 19 hours at 37° C. and 5% C02 in 0.5% FBS containing DMEM medium. Cells were lysed with IX Passive Lysis Buffer (Promega). Plates were incubated for 30 minutes at room temperature. Luminescence counts were read with a Victor2 (Perkin-Elmer) plate reader.
One hour prior to cell lysis for the dual luciferase assay, 10 μl: per well of WST1 reagent (Roche) was added to the 96-well plates. Plates were incubated for 1 hour at 37° C. and 5% CO2. Cell viability was measured by WST1 absorbance at 450 nm with a Victor2 (Perkin-Elmer) plate reader.
Biological activity of the compounds disclosed herein were assessed in the SRE.L luciferase reporter assay. PC-3 prostate cancer cells were co-transfected with 2 ng of the Gα12Q231L expression plasmid along with 50 ng of the SRE.L and 7 ng of the pRL-TK luciferase reporter plasmids, as described in the Materials and Methods section. Cells were treated with 0 (vehicle, DMSO alone), 1, 3, 10, 30, and 100 μM of a compound disclosed herein for 19 hrs after transfection before lysis. Luminescence was determined as described in the Materials and Methods section. Just before cell lysis, the viability of the cells was measured using the WST-1 cell proliferation reagent as described in the Materials and Methods section. Data are expressed as percentage of inhibition (DMSO alone=0%). The experiments were performed three separate times to achieve n=3 in triplicate.
Take `O=C(Nc1ccc(Cl)cc1)C1CCCN(C(=O)c2cnc(-c3ccco3)s2)C1` (centres unmarked) [Example E-037, N-(4-chlorophenyl)-1-(2-(furan-2-yl)thiazole-5-carbonyl)piperidine-3-carboxamide]: inhibition was half-maximal at 18 µM (IC50).
As to `O=C(Nc1ccc(Cl)cc1)C1CCCN(C(=O)c2ccc3scnc3c2)C1` (centres unmarked) [Example E-074, 1-(benzo[d]thiazole-5-carbonyl)-N-(4-chlorophenyl)piperidine-3-carboxamide], the 50% inhibitory concentration (IC50) (in general, the concentration that inhibits the measured activity by half) is above 100 µM.
Still for that read-out and setting: under `COCCOC(=O)N1CCN(C(=O)c2cccc(-c3ccco3)c2)CC1C(=O)Nc1ccc(Cl)cc1` (centres unmarked) [Example E-016, 2-methoxyethyl 2((4-chlorophenyl)carbamoyl)-4-(3-(furan-2-yl)benzoyl)piperazine-1-carboxylate] stands 16 µM; under `O=C(Nc1ccc(Cl)cc1)C1CCCN(C(=O)c2ccccc2-n2ccnc2)C1` (centres unmarked) [Example E-091, 1-(2-(1H-imidazol-1-yl)benzoyl)-N-(4-chlorophenyl) piperidine-3-carboxamide], 4.1 µM.
The same measure, in the same setting: under `CCOC(=O)N1CCN(C(=O)c2cccc(-c3ccco3)c2)CC1C(=O)Nc1ccc(Cl)cc1` (centres unmarked) [Example E-014, ethyl 2((4-chlorophenyl)carbamoyl)-4-(3-(furan-2-yl)benzoyl)piperazine-1-carboxylate] stands 16 µM; under `O=C(Nc1ccc(Cl)cc1)C1CN(C(=O)c2cncc(-c3ccncc3)c2)CC(F)(F)C1` (centres unmarked) [Example E-042, 1-([3,4′-bipyridine]-5-carbonyl)-N-(4-chlorophenyl)-5,5-difluoropiperidine-3-carboxamide], 0.91 µM; under `O=C(Nc1ccc(Cl)cc1)C1CN(C(=O)c2cncc(-c3ccco3)c2)CC(F)(F)C1` (centres unmarked) [Example E-026, N-(4-chlorophenyl)-5,5-difluoro-1-{[5-(furan-2-yl)pyridin-3-yl]carbonyl}piperidine-3-carboxamide], 5.3 µM.
On the same count and under the same terms, in the case of `O=C(Nc1ccc(Cl)cc1)C1CCCN(C(=O)c2ccc3occc3c2)C1` (centres unmarked) [Example E-094, 1-(benzofuran-5-carbonyl)-N-(4-chlorophenyl)piperidine-3-carboxamide] it was 0.46 µM; in that of `O=C(Nc1ccc(Cl)cc1)C1CC(NCc2ccccc2)CN(C(=O)c2cccc(-c3ccco3)c2)C1` (centres unmarked) [Example E-048, 5-(benzylamino)-N-(4-chlorophenyl)-1-(3-(furan-2-yl)benzoyl)piperidine-3-carboxamide], 0.047 µM; in that of `CC(=O)N1CCN(C(=O)c2cccc(-c3ccco3)c2)CC1C(=O)Nc1ccc(Cl)cc1` (centres unmarked) [Example E-008, 1-acetyl-N-(4-chlorophenyl)-4-(3-(furan-2-yl)benzoyl)piperazine-2-carboxamide], 50 µM.
`O=C1CC(C(=O)Nc2ccc(Cl)cc2)CN(C(=O)c2cccc(-c3ccco3)c2)C1` (centres unmarked) [Example E-063, N-(4-chlorophenyl)-1-(3-(furan-2-yl)benzoyl)-5-oxopiperidine-3-carboxamide] displayed an IC50 of 15 µM.
`O=C(Nc1ccc(Cl)cc1)C1CN(C(=O)c2cccc(-c3ccccn3)c2)CC(F)(F)C1` (centres unmarked) [Example E-096, N-(4-chlorophenyl)-5,5-difluoro-1-(3-(pyridin-2-yl)benzoyl)piperidine-3-carboxamide]: the IC50 was found to be 1.1 µM.
The same measure, in the same setting: in the case of `O=C(Nc1ccc(Cl)cc1)C1CCCN(C(=O)Cc2csc(-c3ccc(F)cc3)n2)C1` (centres unmarked) [Example E-078, N-(4-chlorophenyl)-1-(2-(2-(4-fluorophenyl)thiazol-4-yl)acetyl)piperidine-3-carboxamide] it was 1 µM; in that of `O=C(Nc1ccc(Cl)cc1)C1CCCN(C(=O)Cc2cc3ccccc3o2)C1` (centres unmarked) [Example E-071, 1-(2-(benzofuran-2-yl)acetyl)-N-(4-chlorophenyl)piperidine-3-carboxamide], 12 µM.
The same measure, in the same setting: in the case of `O=C(Nc1ccc(Cl)cc1)C1CN(C(=O)c2cccc(-c3cncnc3)c2)CC(F)(F)C1` (centres unmarked) [Example E-099, N-(4-chlorophenyl)-5,5-difluoro-1-(3-(pyrimidin-5-yl)benzoyl)piperidine-3-carboxamide] it was 3.3 µM; in that of `CS(=O)(=O)c1ccc(NC(=O)C2CCCN(C(=O)c3cccc(-c4ccco4)c3)C2)cc1` (centres unmarked) [Example E-095, 1-(3-(furan-2-yl)benzoyl)-N-(4-(methylsulfonyl)phenyl) piperidine-3-carboxamide], 5.5 µM.
`Cc1ccc(NC(=O)C2CCCN(C(=O)c3cccc(-c4ccco4)c3)C2)cc1` (centres unmarked) [Example E-111, 1-(3-(furan-2-yl)benzoyl)-N-(p-tolyl)piperidine-3-carboxamide] yielded a half-inhibitory concentration (IC50) of 15 µM.
Turning to `CC1(C(=O)Nc2ccc(Cl)cc2)CCCN(C(=O)c2cccc(-c3ccco3)c2)C1` (centres unmarked) [Example E-028, N-(4-chlorophenyl)-1-(3-(furan-2-yl)benzoyl)-3-methylpiperidine-3-carboxamide], half-maximal inhibition (IC50) required 5 µM.
The compound `CN(C)C1CC(C(=O)Nc2ccc(Cl)cc2)CN(C(=O)c2cccc(-c3ccco3)c2)C1` (centres unmarked) [Example E-064, N-(4-chlorophenyl)-5-(dimethylamino)-1-(3-(furan-2-yl)benzoyl)piperidine-3-carboxamide] came in with an IC50 of 6.9 µM.
Take `C=C1CC(C(=O)Nc2ccc(Cl)cc2)CN(C(=O)c2cccc(-c3ccco3)c2)C1` (centres unmarked) [Example E-020, N-(4-chlorophenyl)-1-(3-(furan-2-yl)benzoyl)-5-methylenepiperidine-3-carboxamide]: it took 1.9 µM to reach half-maximal inhibition (IC50).
The same measure, in the same setting: in the case of `O=C(Nc1ccc(Cl)cc1)C1CCCN(C(=O)c2cc(-c3ccco3)ccn2)C1` (centres unmarked) [Example E-024, N-(4-chlorophenyl)-1-(4-(furan-2-yl)picolinoyl)piperidine-3-carboxamide] it was 4.3 µM; in that of `O=C(Nc1ccc(Cl)cc1)C1CC(O)CN(C(=O)c2cccc(-c3ccco3)c2)C1` (centres unmarked) [Example E-027, N-(4-chlorophenyl)-1-{[3-(furan-2-yl)phenyl]carbonyl}-5-hydroxypiperidine-3-carboxamide], 12.5 µM.
As to `CNC1CC(C(=O)Nc2ccc(Cl)cc2)CN(C(=O)c2cccc(-c3ccco3)c2)C1` (centres unmarked) [Example E-044, N-(4-chlorophenyl)-1-(3-(furan-2-yl)benzoyl)-5-(methylamino)piperidine-3-carboxamide], half-maximal inhibition (IC50) was put at 2.2 µM.
On the same count and under the same terms, in the case of `O=C(Nc1ccc(Cl)cc1)C1CN(C(=O)c2cccc(-c3ccco3)c2)CCN1C(=O)NC1CCCC1` (centres unmarked) [Example E-011, N2-(4-chlorophenyl)-N1-cyclopentyl-4-(3-(furan-2-yl)benzoyl)piperazine-1,2-dicarboxamide] it was 14 µM.
Compound `O=C(Nc1ccc(Cl)cc1)C1CCCN(C(=O)c2cccc(-n3cccn3)c2)C1` (centres unmarked) [Example E-030, 1-(3-(1H-pyrazol-1-yl)benzoyl)-N-(4-chlorophenyl)piperidine-3-carboxamide] had an IC50 of 6.1 µM.
Compound `CC(C)C(=O)N1CCN(C(=O)c2cccc(-c3ccco3)c2)CC1C(=O)Nc1ccc(Cl)cc1` (centres unmarked) [Example E-006, N-(4-chlorophen)-4-(3-(furan-2-yl)benzoyl)-1-isobutyrylpiperazine-2-carboxamide] registered an IC50 of 12 µM.
With `O=C(Nc1ccc(Cl)cc1)C1CN(C(=O)c2cccc(-c3ncc[nH]3)c2)CC(F)(F)C1` (centres unmarked) [Example E-098, 1-(3-(1H-imidazol-2-yl)benzoyl)-N-(4-chlorophenyl)-5,5-difluoropiperidine-3-carboxamide], the IC50 amounted to 10 µM.
In turn, `O=C(Nc1ccc(Cl)cc1)C1CN(C(=O)c2cccc(-n3cccn3)c2)CC(F)(F)C1` (centres unmarked) [Example E-067, 1-(3-(1H-pyrazol-1-yl)benzoyl)-N-(4-chlorophenyl)-5,5-difluoropiperidine-3-carboxamide] showed an IC50 of 7 µM.
Compound `O=C(Nc1ccc(Cl)cc1)C1CN(C(=O)c2cccc(-c3ccco3)c2)CC(F)(F)C1` (centres unmarked) [Example E-019, N-(4-chlorophenyl)-5,5-difluoro-1-(3-(furan-2-yl)benzoyl)piperidine-3-carboxamide] came in with an IC50 of 0.58 µM.

The same test, now with this note: PC-3 cells transfected with Gα12Q231L, SRE.L and pRL-TK reporters; compound 19 hrs.
On to `CC(c1ccc(-n2cccn2)cc1)N1CCCC(C(=O)Nc2ccc(Cl)cc2)C1` (single isomer, unassigned) [Example E-103, 1-(1-(4-(1H-pyrazol-1-yl)phenyl)ethyl)-N-(4-chlorophenyl)piperidine-3-carboxamide], for which the IC50 stood at 2.2 µM.
Still for that read-out and setting: in the case of `COC1CC(C(=O)Nc2ccc(Cl)cc2)CN(C(=O)c2cccc(-c3ccco3)c2)C1` (single isomer, unassigned) [Example E-045, N-(4-chlorophenyl)-1-(3-(furan-2-yl)benzoyl)-5-methoxypiperidine-3-carboxamide] it was 0.93 µM; in that of `O=C(NC1CC(C(=O)Nc2ccc(Cl)cc2)CN(C(=O)c2cccc(-c3ccco3)c2)C1)Oc1ccccc1` (centres unmarked) [Example E-056, phenyl (5-((4-chlorophenyl)carbamoyl)-1-(3-(furan-2-yl)benzoyl)piperidin-3-yl)carbamate], 38 µM.
